Assay results from patent US20040266766A1, “Selective urokinase inhibitors” (Wilex AG, priority 2001, published 2004).
Where a name gives a salt, the structure may show the parent alone. Read-outs that look alike come from different tables or passages of the source.

Legend:
[1] = target: T1, urokinase (uPA) (Homo sapiens, UniProt P00749); experiment: In vitro inhibition of urokinase (Ki according to Dixon, chromogenic substrate); assay type: biochemical
T1 construct: purchased Calbiochem-Novabiochem GmbH, Bad Soden, Germany
Procedure: (§1) In order to determine the inhibitory activity, 200 μl Tris buffer (0.05 mol/l containing the inhibitor, 0.154 mol/l NaCl, pH 8.0), 25 μl substrate (Pefachrome uPA, Pefachrome PL or Pefabloc TH in H2O; Pentapharm Ltd, Basle, Switzerland) and 50 μl urokinase (Calbiochem-Novabiochem GmbH, Bad Soden, Germany) or another appropriate protease e.g. plasmin, thrombin or FXa are incubated for 10 minutes at 30° C. After ca. 30 minutes and 30 cycles the absorption is determined at 405 nm by means of a microplate reader (Mediators PHL, Aureon Biosystems, Vienna, Austria). The Ki values were determined according to Dixon by linear regression using a computer program.

[2] = target: Plasmin (Homo sapiens, UniProt P00747); experiment: In vitro inhibition of plasmin (Ki according to Dixon); assay type: biochemical
Procedure: as §1

[3] = target: Thrombin (Homo sapiens, UniProt P00734); experiment: In vitro inhibition of thrombin (Ki according to Dixon); assay type: biochemical
Procedure: as §1

[4] = target: FXa (Homo sapiens, UniProt P00742); experiment: In vitro inhibition of FXa (Ki according to Dixon); assay type: biochemical
Procedure: as §1

[5] = target: PK (Homo sapiens, UniProt P03952); experiment: In vitro inhibition of PK (Ki); assay type: biochemical; conditions: summary table
Procedure: as §1

[6] = tested on: Caco-2 cell monolayers; experiment: Caco-assay: transport across Caco-2 cell monolayers; assay type: in vitro ADME, human; conditions: for % amount in the basolateral compartment: 10 μg/ml apical, four hours
Procedure: Transport of the compounds WX-508, WXC-316, WXC-318, WXC-324, WXC-340, WX-532, WX-538, WX-550 and WX-582 across Caco-2 cell monolayers was investigated. In this experiment the bioavailability of the said compounds after oral administration was assessed.
Caco-2-cells (American Type Culture Collection, Rockville, Md., USA) were cultured in Dulbecco's modified Eagle medium (DMEM) (Life Technologies, Gibco BRL, UK) containing 10% vol/vol heat-denatured foetal calf serum (FCS), 1% vol/vol non-essential amino acids, 160 U/ml benzylpenicillin and 100 U/ml streptomycin (Sigma Chemical, St. Louis, Mo., USA). The cells are kept at 37° C. in an atmosphere comprising 95% air and 5% CO2 at 90% relative air humidity. The cells are cultured in […] culture flasks, the medium being replaced every second day and the cells are trypsinized once per week.
For the transport investigations the Caco-2 cells are cultured on porous polycarbonate filter membranes having a pore size of 0.4 μm and a surface of 4.7 cm^2 in clusters of 6 wells (Costar Transwell, Badhoevedorp, Netherlands). The cells are inoculated on each filter at an initial density of 10^4 cells/cm^2. These cells are kept at 37° C. in one of the atmospheres described above. The medium is replaced every second day for a period of three weeks.
On the day of the transport experiment the culture medium was replaced by the same volume of Hank's balanced saline solution (HBSS) buffered with 30 mM HEPES at pH 7.2 (transport medium) and the cells are allowed to equilibrate for 1 hour. Afterwards the apical medium is replaced by 1.5 ml of a solution containing one of the compounds in HBSS/HEPES (10 μg/ml). Cell monolayers are incubated for four hours. Samples of the apical and basolateral compartments are removed at the end of the experiments and used to quantitatively determine the transport of the respective compounds.
The transepithelial electric resistance (TEER) is measured before and after equilibration using a Milicell ERS meter which was connected to a pair of electrodes in order to ensure the integrity of the monolayers formed on the filters. TEER is also measured at the end of the experiments to ensure that the cell monolayer remains coherent.
Samples are taken from the apical and the basolateral side and analysed in a beta counter after adding a scintillation cocktail. All experiments were carried out three times.

[7] = Oral bioavailability and plasma kinetics in mice (serum concentration); assay type: in vivo, Balb/c mice; conditions: mouse; for concentration at 20 min / concentration at 40 min / concentration at 60 min: female, Balb/c, serum, po; for concentration at 20 min: sample at 20 minutes; for concentration at 40 min: sample at 40 minutes; for concentration at 60 min: sample at 60 minutes
[8] = list of test substances of Example 17, read-out: Ki human uPA
[9] = summary table, read-out: Ki uPA
[10] = 7.5 mg/kg, 7.5 mg/kg oral, read-out: c in the serum 1st analysis
[11] = 75 mg/kg, 75 mg/kg oral, read-out: c in the serum 1st analysis
[12] = 30 mg/kg, 30 mg/kg oral, read-out: c in the serum 1st analysis
[13] = 300 mg/kg, 300 mg/kg oral, read-out: c in the serum 1st analysis
[14] = 10 mg/kg i.v., time of sample collection 0
[15] = 10 mg/kg i.v., time of sample collection 10
[16] = 10 mg/kg i.v., time of sample collection 30
[17] = 30 mg/kg, 30 mg/kg oral, read-out: c in the serum 2nd analysis
[18] = 300 mg/kg, 300 mg/kg oral, read-out: c in the serum 2nd analysis

Chain of PK (P03952 20-638): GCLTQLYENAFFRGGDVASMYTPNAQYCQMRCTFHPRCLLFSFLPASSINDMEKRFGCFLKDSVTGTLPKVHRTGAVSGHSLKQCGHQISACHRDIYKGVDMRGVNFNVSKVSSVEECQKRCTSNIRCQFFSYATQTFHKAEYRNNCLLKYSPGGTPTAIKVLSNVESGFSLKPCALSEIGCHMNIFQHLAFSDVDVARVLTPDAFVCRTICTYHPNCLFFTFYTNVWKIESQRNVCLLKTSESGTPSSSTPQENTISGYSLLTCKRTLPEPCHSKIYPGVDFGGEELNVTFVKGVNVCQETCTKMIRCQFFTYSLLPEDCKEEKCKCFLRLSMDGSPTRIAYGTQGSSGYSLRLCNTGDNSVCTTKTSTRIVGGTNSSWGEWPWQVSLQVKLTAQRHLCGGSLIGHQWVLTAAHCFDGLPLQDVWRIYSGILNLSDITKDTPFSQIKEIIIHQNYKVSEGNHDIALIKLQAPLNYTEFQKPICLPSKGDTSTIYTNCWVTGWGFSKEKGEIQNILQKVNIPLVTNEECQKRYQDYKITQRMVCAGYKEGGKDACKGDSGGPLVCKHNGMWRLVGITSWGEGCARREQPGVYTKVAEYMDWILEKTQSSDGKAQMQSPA
Chain of FXa (P00742 235-488 limits assumed): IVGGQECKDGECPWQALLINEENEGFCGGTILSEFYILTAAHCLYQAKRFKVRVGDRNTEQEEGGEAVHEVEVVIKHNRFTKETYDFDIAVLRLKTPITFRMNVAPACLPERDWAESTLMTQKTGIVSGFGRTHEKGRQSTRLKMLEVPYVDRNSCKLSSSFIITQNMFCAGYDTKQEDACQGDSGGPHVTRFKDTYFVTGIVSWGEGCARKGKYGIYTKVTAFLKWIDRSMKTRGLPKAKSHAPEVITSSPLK
Chain of FXa (P00742 41-179 partner limits assumed): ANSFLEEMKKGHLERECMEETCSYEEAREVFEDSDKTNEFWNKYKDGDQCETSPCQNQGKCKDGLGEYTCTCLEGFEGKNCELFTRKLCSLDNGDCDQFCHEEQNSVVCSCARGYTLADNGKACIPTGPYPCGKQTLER
Chain of Plasmin (P00747 581-810 limits assumed, species assumed): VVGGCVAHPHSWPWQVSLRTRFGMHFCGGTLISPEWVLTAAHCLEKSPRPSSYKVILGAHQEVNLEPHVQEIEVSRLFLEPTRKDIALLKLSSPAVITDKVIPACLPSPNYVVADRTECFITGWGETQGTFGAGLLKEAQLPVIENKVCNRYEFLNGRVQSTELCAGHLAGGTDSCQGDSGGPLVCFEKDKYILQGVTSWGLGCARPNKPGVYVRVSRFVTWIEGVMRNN
Chain of Plasmin (P00747 97-580 partner limits assumed, species assumed): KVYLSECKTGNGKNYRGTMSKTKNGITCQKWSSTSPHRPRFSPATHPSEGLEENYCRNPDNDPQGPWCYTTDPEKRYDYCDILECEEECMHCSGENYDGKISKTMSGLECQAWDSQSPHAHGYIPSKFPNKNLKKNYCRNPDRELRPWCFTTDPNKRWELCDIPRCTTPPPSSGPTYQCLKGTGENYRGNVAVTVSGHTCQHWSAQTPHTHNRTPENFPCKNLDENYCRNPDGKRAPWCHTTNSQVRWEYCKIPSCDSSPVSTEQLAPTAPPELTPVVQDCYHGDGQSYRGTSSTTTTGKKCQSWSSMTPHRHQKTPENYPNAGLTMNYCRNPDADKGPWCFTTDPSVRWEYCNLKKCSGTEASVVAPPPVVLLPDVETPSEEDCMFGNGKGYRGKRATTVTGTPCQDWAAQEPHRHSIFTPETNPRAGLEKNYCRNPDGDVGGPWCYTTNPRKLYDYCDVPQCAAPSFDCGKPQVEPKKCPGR

Row | Structure (SMILES) | Ki [1, 8] | Ki ([1]; read-out: Ki uPA) | Ki [1, 9] | Ki [2] | Ki [3] | Ki ([3]; summary table) | Ki [4] | Ki ([4]; summary table) | Ki [5] | % amount in the basolateral compartment ([6]; first value column) | % amount in the basolateral compartment ([6]; second value column) | % amount in the basolateral compartment ([6]; third value column) | Caco-2 assay % basolateral ([6]; first series, first value) | Caco-2 assay % basolateral ([6]; first series, second value) | Caco-2 assay % basolateral ([6]; first series, third value) | Caco-2 assay % basolateral ([6]; second series, first value) | Caco-2 assay % basolateral ([6]; second series, second value) | Caco-2 assay % basolateral ([6]; second series, third value) | concentration at 20 min [7, 12] | concentration at 40 min [7, 12] | also measured
1 | N=C(N)Nc1ccc(CNC(=O)[C@H](CCc2ccccc2)NC(=O)C(CO)NS(=O)(=O)Cc2ccccc2)cc1 (stereo partly drawn) [WX-550, Benzylsulfonyl-(D)-Ser-HomoPhe-(4-guanidinobenzyl)amide hydrochloride] | 100 nM | 100 nM | 100 nM | 2.5 µM | > 50 µM | > 50 µM | > 100 µM | > 100 µM | 268 µM | 0% | 3.1% | 0.6% | 0% | 3.1% | 0.6% | – | – | – | – | – | concentration at 20 min [7, 10]: 0 ng/mL; concentration at 40 min [7, 10]: 0 ng/mL; concentration at 60 min [7, 10]: 0 ng/mL; concentration at 20 min [7, 11]: 0 ng/mL; concentration at 40 min [7, 11]: 300 ng/mL; concentration at 60 min [7, 11]: 0 ng/mL; c in the serum 1st analysis ([7]; 2.5 mg/kg i.v., time of sample collection 0): 7.2 µg/mL; c in the serum 1st analysis ([7]; 2.5 mg/kg i.v., time of sample collection 10): 0.7 µg/mL; c in the serum 1st analysis ([7]; 2.5 mg/kg i.v., time of sample collection 30): 0.02 µg/mL
2 | CN(CC(=O)NCc1ccc(NC(=N)N)cc1)C(=O)C(CO)NS(=O)(=O)Cc1ccccc1 (stereo not drawn) [WX-538, benzylsulfonyl-(D)-Ser-N-Me-Gly-(4-guanidinobenzyl)amide] | 41 nM | 41 nM | 41 nM | 130 µM | > 100 µM | > 100 µM | > 100 µM | > 100 µM | 109 µM | 0.2% | 0.2% | 0.1% | 0.2% | 0.2% | 0.1% | 0.1% | 0.1% | 0% | 100 ng/mL | 50 ng/mL | concentration at 60 min [7, 12]: 200 ng/mL; concentration at 20 min [7, 13]: 2500 ng/mL; concentration at 40 min [7, 13]: 3500 ng/mL; concentration at 60 min [7, 13]: 2300 ng/mL; c in the serum 1st analysis [7, 14]: 45.8 µg/mL; c in the serum 1st analysis [7, 15]: 5.5 µg/mL; c in the serum 1st analysis [7, 16]: 0.6 µg/mL
3 | N=C(N)Nc1ccc(CNC(=O)CNC(=O)C(CO)NS(=O)(=O)Cc2cccc([N+](=O)[O-])c2)cc1 (stereo not drawn) [WX-C316, 3-Nitrobenzyl-sulfonyl-(D)-Ser-Gly-(4-guanidinobenzyl)amide hydrochloride] | 90 nM | 90 nM | 90 nM | – | – | – | 32.4 µM | – | 875 µM | 0.2% | 0.2% | 3.6% | 0.2% | 0.2% | 3.4% | 0.1% | 0.1% | 3.6% | 500 ng/mL | 5900 ng/mL | Ki Plasmin [2]: no inh. at 100 μM *); Ki Plasmin ([2]; summary table): no inh. at 100 μM *); Ki Thrombin [3]: no inh. at 100 μM *); Ki Thrombin ([3]; summary table): no inh. at 100 μM *); concentration at 20 min [7, 17]: 600 ng/mL; concentration at 40 min [7, 17]: 7100 ng/mL; concentration at 60 min [7, 12]: 400 ng/mL; concentration at 60 min [7, 17]: 500 ng/mL; concentration at 20 min [7, 13]: 6000 ng/mL; concentration at 20 min [7, 18]: 7200 ng/mL; concentration at 40 min [7, 13]: 21800 ng/mL; concentration at 40 min [7, 18]: 32100 ng/mL; concentration at 60 min [7, 13]: 5300 ng/mL; concentration at 60 min [7, 18]: 5800 ng/mL; c in the serum 1st analysis [7, 14]: 45.4 µg/mL; c in the serum 2nd analysis [7, 14]: 67.5 µg/mL; c in the serum 1st analysis [7, 15]: 12.4 µg/mL; c in the serum 2nd analysis [7, 15]: 14.3 µg/mL; c in the serum 1st analysis [7, 16]: 2.7 µg/mL; c in the serum 2nd analysis [7, 16]: 2.6 µg/mL
